Data published in patent US11155542B2, “Antimicrobial compounds, their use for the treatment of mammalian infections and a new metabolic mechanism” (priority 2016, dated 2021).
Converted amounts (≈) assume the structure as drawn.

Experiments:
[1] = Chemical stability and solubility of Meisenheimer complexes and methylated derivatives; details: room temperature
[2] = Cytotoxicity determination (HeLa); format: cell-based; details: human, HeLa cells (DSM ACC 57)
Method: The test items were dissolved in DMSO (typically 10 mg/mL, less soluble compounds lower). The solutions were diluted in RPMI 1640 medium. HeLa cells (DSM ACC 57) were grown in RPMI 1640 and harvested at the logarithmic growth phase after soft trypsinization using 0.25% trypsin in phosphate buffered saline (PBS) containing 0.02% ethylenediaminetetraacetic acid (EDTA). For each experiment, approximately 10,000 cells were seeded with 0.1 mL culture medium per well of the 96-well microplates. HeLa cells were pre-incubated for 48 h prior to the addition of the test compounds (final DMSO concentration ≤0.5%), which were carefully diluted on the subconfluent monolayers. Incubation was then conducted in a humidified atmosphere at 37° C. and 5% CO2. The adherent HeLa cells were fixed by glutaraldehyde and stained with a 0.05% solution of methylene blue for 10 min. After gently washing, the stain was eluted with 0.2 mL of 0.33 N HCl in the wells. The optical densities were measured at 660 nm in a SUNRISE microplate reader (TECAN).

Mtb H37Rv = test: Resazurin microtiter assay (REMA), MIC Mtb H37Rv; format: cell-based; details: Mycobacterium tuberculosis
M. marinum = test: MIC M. marinum; format: cell-based; details: Mycobacterium marinum
M. vaccae 10670 = test: MIC M. vaccae 10670; format: cell-based; details: Mycolicibacterium vaccae
[3] = Blank plasma from untreated animals spiked with BTZ043; format: in vitro ADME
Text: It was therefore reasoned, that a possible explanation of this phenomenon would involve a yet unknown metabolite that was either thermally or oxidatively unstable when exposed to air.

[4] = format: in vitro ADME; details: 5 µg/mL
Method: Human: A BTZ043 solution in DMSO (5 mg/mL) was prepared and 1 μL of this solution was added to 1 mL aliquots fresh whole blood. The mixtures were shaken at 37° C. for 2 h or 16 h and centrifuged at 4° C. and 3000 rpm to yield plasma. Plasma samples (60 μL) were mixed with acetonitrile (240 μL) on ice, vortexed, treated in an ultrasonic bath (3-5 s) and centrifuged at 4° C. and 9750 rpm. The supernatants were concentrated with a nitrogen stream to a residual volume of approximately 40 μL and analyzed by HPLC and LC-HRMS.

[5] = Minipig plasma samples after oral BTZ043; format: in vivo, minipigs; details: plasma samples after incubation at room temperature, in some samples
Method: In order to reveal potentially overlooked metabolites, additional metabolic studies of BTZ043 were performed that incorporated careful analysis of highly resolved HPLC chromatograms of plasma samples after different incubation times at room temperature. To ensure maximum stability of the chromatographic conditions, all solvents were carefully degassed through vacuum treatment and/or sparging with nitrogen. […] The concomitant drastic increase of the BTZ043 peak area (in some samples >100%) emphasized the significance of this transient metabolite. […] It was suspected that this metabolite could be formed through an enzymatic reduction of BTZ043 and that it is unstable towards oxygen from air.
Minipig plasma samples: Minipigs received oral doses of 360 mg/kg BTZ043. Blood was collected 2 h subsequent to administration of the compound formulation, immediately cooled on ice and centrifuged at 4° C. and 3000 rpm to yield plasma aliquots which were snap frozen and stored at −80° C. Plasma aliquots (50 μL) were mixed with acetonitrile (200 μL) on ice and under inert conditions (Don Whitley Scientific, anaerobic workstation), vortexed, treated in an ultrasonic bath (3-5 s) and centrifuged at 4° C. and 9750 rpm. The supernatants were concentrated with a nitrogen stream to a residual volume of approximately 40 μL and analyzed by HPLC and LC-HRMS.

Fresh blood assay, mice = format: in vitro ADME, C57BL/6J mice; details: in vitro incubation of fresh whole blood, HPLC-HRMS
Method: Mice: Fresh whole blood was collected from C57BL/6J mice after cervical dislocation under isoflurane anesthesia. Test item solutions were prepared in DMSO (5 mg/mL) and 0.4 μL of this solution was added to 400 μL fresh whole blood. The mixtures were incubated at 37° C. for 4 h and centrifuged at 4° C. and 3000 rpm to yield plasma. Plasma samples (50 μL) were mixed with acetonitrile (200 μL) on ice, vortexed, treated in an ultrasonic bath (3-5 s) and centrifuged at 4° C. and 9750 rpm. The supernatants were concentrated with a nitrogen stream to a residual volume of approximately 40 μL and analyzed by HPLC and LC-HRMS.

Row | Compound | Solubility and stability of the methylated derivatives [1] | CC50 [2] [ng/mL] | MIC (Mtb H37Rv) [ng/mL] | MIC (M. marinum) [ng/mL] | MIC (M. vaccae 10670) [ng/mL] | Peak areas of BTZ043 in spiked blank plasma over time [3] | Transformation of BTZ043 to 5b in fresh whole human blood [4] | Increase of the BTZ043 peak area in plasma samples over time [5] [%] | Formation of the Meisenheimer complex (reduced form) in the blood assay (Fresh blood assay, mice)
1 | COC1=C2CC(C(F)(F)F)=CC([N+](=O)[O-])=C2SC(N2CCC3(CC2)OC[C@H](C)O3)=N1 [Compound 6b] | sufficiently soluble and stable at room temperature |  |  |  |  |  |  |  | 
2 | COC1=C2C=C(C(F)(F)F)CC([N+](=O)[O-])=C2SC(N2CCC3(CC2)OC[C@H](C)O3)=N1 [Compound 6a] | sufficiently soluble and stable at room temperature |  |  |  |  |  |  |  | 
3 | Cc1c(C(F)(F)F)cc([N+](=O)[O-])c2sc(N3CCN(CC4CCCCC4)CC3)nc(=O)c12 [Example 16, 2-(4-(Cyclohexylmethyl)piperazin-1-yl)-5-methyl-8-nitro-6-(trifluoromethyl)-4H-1,3-benzothiazin-4-one] |  | > 25000 | 0.5 (≈ 0.00106 µM) | 1 (≈ 0.00213 µM) | < 1.2 |  |  |  | 
4 | C[C@H]1COC2(CCN(c3nc(=O)c4cc(C(F)(F)F)cc([N+](=O)[O-])c4s3)CC2)O1 [BTZ043, (S)-2-(2-methyl-1,4-dioxa-8-azaspiro[4.5]decan-8-yl)-8-nitro-6-(trifluoro-methyl)-4H-1,3-benzothiazin-4-one, reference compound] |  | > 50000 | 1 (≈ 0.00232 µM) | 4 (≈ 0.00927 µM) | < 1.2 | remained completely unchanged over time | transformation of BTZ043 to 5b after several hours | > 100 | 
5 | Cc1c(C(F)(F)F)cc2c(=O)nc(N3CCC4(CC3)OC[C@H](C)O4)sc2c1[N+](=O)[O-] [Example 9a, (S)-7-Methyl-2-(2-methyl-1,4-dioxa-8-azaspiro[4.5]decan-8-yl)-8-nitro-6-(trifluoromethyl)-4H-1,3-benzothiazin-4-one] |  | 38900 (≈ 87.3 µM) | 500 (≈ 1.12 µM) | 250 (≈ 0.561 µM) | 39 (≈ 0.0876 µM) |  |  |  | formed only fairly detectable amounts of the Meisenheimer complex
6 | Cc1c(C(F)(F)F)cc([N+](=O)[O-])c2sc(N3CCC4(CC3)OC[C@H](C)O4)nc(=O)c12 [Example 9b, (S)-5-Methyl-2-(2-methyl-1,4-dioxa-8-azaspiro[4.5]decan-8-yl)-8-nitro-6-(trifluoromethyl)-4H-1,3-benzothiazin-4-one] |  | > 50000 | 8 (≈ 0.018 µM) | 8 (≈ 0.018 µM) | < 1.2 |  |  |  | could only be detected in trace amounts
